Reference: ChEMBL document CHEMBL3872249, “Computer design, synthesis, and bioactivity analyses of drugs like fingolimod used in the treatment of multiple sclerosis” (Bioorg Med Chem, 2017)
Active and inactive are the calls of the source. The calls are words filed in the database; no cut-off is given here.

How the values were obtained:
[1] = Cytotoxicity against human SH-SY5Y cells measured after 24 hrs by crystal-violet staining based assay; type: toxicity, cell-based
[2] = Cytotoxicity against human U118MG cells measured after 24 hrs by crystal-violet staining based assay; type: toxicity, cell-based; settings: u-118-mg
[3] = molecular target: Sphingosine 1-phosphate receptor 1 (Homo sapiens) (UniProt P21453); experiment: Agonist activity at sphingosine-1-phosphate receptor (unknown origin) expressed in HEK293 cells assessed as increase in cAMP level at EC10 after 18 hrs by CRE-responsive renilla luciferase reporter gene assay; type: functional, cell-based
Sequence of Sphingosine 1-phosphate receptor 1 (Homo sapiens) (P21453 whole entry): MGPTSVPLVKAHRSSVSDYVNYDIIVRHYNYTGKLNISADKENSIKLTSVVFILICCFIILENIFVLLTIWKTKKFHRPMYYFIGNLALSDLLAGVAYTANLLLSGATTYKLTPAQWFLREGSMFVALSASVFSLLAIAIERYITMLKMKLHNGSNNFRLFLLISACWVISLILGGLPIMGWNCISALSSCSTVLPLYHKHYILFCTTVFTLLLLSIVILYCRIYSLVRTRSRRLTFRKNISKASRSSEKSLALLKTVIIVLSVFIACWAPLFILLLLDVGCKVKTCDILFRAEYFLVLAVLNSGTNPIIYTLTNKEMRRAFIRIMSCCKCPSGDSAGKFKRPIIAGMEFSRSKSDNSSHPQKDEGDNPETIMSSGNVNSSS

SH-SY5Y [4] = experiment: Effect on IL1B mRNA expression in human SH-SY5Y cells at EC10 by qPCR method relative to beta-actin; type: functional
SH-SY5Y [5] = experiment: Effect on IL6 mRNA expression in human SH-SY5Y cells at EC10 by qPCR method relative to beta-actin; type: functional
SH-SY5Y [6] = experiment: Effect on IL2 mRNA expression in human SH-SY5Y cells at EC10 by qPCR method relative to beta-actin; type: functional
SH-SY5Y [7] = experiment: Effect on EDNRA mRNA expression in human SH-SY5Y cells at EC10 by qPCR method relative to beta-actin; type: functional
SH-SY5Y [8] = experiment: Effect on EPHA1 mRNA expression in human SH-SY5Y cells at EC10 by qPCR method relative to beta-actin; type: functional
SH-SY5Y [9] = experiment: Effect on ADRB2 mRNA expression in human SH-SY5Y cells at EC10 by qPCR method relative to beta-actin; type: functional
SH-SY5Y [10] = experiment: Effect on COL1A1 mRNA expression in human SH-SY5Y cells at EC10 by qPCR method relative to beta-actin; type: functional
SH-SY5Y [11] = experiment: Effect on NOS2 mRNA expression in human SH-SY5Y cells at EC10 by qPCR method relative to beta-actin; type: functional
SH-SY5Y [12] = experiment: Effect on OPRD1 mRNA expression in human SH-SY5Y cells at EC10 by qPCR method relative to beta-actin; type: functional
SH-SY5Y [13] = experiment: Effect on S1PR3 mRNA expression in human SH-SY5Y cells at EC10 by qPCR method relative to beta-actin; type: functional
SH-SY5Y [14] = experiment: Effect on PIK3CG mRNA expression in human SH-SY5Y cells at EC10 by qPCR method relative to beta-actin; type: functional
SH-SY5Y [15] = experiment: Effect on GRM1 mRNA expression in human SH-SY5Y cells at EC10 by qPCR method relative to beta-actin; type: functional
U-118-MG [16] = experiment: Effect on IL1B mRNA expression in human U118MG cells at EC10 by qPCR method relative to beta-actin; type: functional
U-118-MG [17] = experiment: Effect on CXCL11 mRNA expression in human U118MG cells at EC10 by qPCR method relative to beta-actin; type: functional
U-118-MG [18] = experiment: Effect on IL2 mRNA expression in human U118MG cells at EC10 by qPCR method relative to beta-actin; type: functional
U-118-MG [19] = experiment: Effect on ICAM1 mRNA expression in human U118MG cells at EC10 by qPCR method relative to beta-actin; type: functional
U-118-MG [20] = experiment: Effect on COL1A1 mRNA expression in human U118MG cells at EC10 by qPCR method relative to beta-actin; type: functional
U-118-MG [21] = experiment: Effect on CYP19A1 mRNA expression in human U118MG cells at EC10 by qPCR method relative to beta-actin; type: functional
U-118-MG [22] = experiment: Effect on TSHR mRNA expression in human U118MG cells at EC10 by qPCR method relative to beta-actin; type: functional
U-118-MG [23] = experiment: Effect on AKT1 mRNA expression in human U118MG cells at EC10 by qPCR method relative to beta-actin; type: functional
U-118-MG [24] = experiment: Effect on CFLAR mRNA expression in human U118MG cells at EC10 by qPCR method relative to beta-actin; type: functional
U-118-MG [25] = experiment: Effect on DRD2 mRNA expression in human U118MG cells at EC10 by qPCR method relative to beta-actin; type: functional
SK-N-SH [26] = experiment: Effect on CSF1 mRNA expression in human SK-N-SH cells at EC10 by qPCR method relative to beta-actin; type: functional
SK-N-SH [27] = experiment: Effect on VEGFA mRNA expression in human SK-N-SH cells at EC10 by qPCR method relative to beta-actin; type: functional
SK-N-SH [28] = experiment: Effect on ICAM1 mRNA expression in human SK-N-SH cells at EC10 by qPCR method relative to beta-actin; type: functional
SK-N-SH [29] = experiment: Effect on EDNRA mRNA expression in human SK-N-SH cells at EC10 by qPCR method relative to beta-actin; type: functional
SK-N-SH [30] = experiment: Effect on JUN mRNA expression in human SK-N-SH cells at EC10 by qPCR method relative to beta-actin; type: functional
SK-N-SH [31] = experiment: Effect on STAT3 mRNA expression in human SK-N-SH cells at EC10 by qPCR method relative to beta-actin; type: functional
SK-N-SH [32] = experiment: Effect on COL1A1 mRNA expression in human SK-N-SH cells at EC10 by qPCR method relative to beta-actin; type: functional
SK-N-SH [33] = experiment: Effect on NOS2 mRNA expression in human SK-N-SH cells at EC10 by qPCR method relative to beta-actin; type: functional
SK-N-SH [34] = experiment: Effect on OPRD1 mRNA expression in human SK-N-SH cells at EC10 by qPCR method relative to beta-actin; type: functional
SK-N-SH [35] = experiment: Effect on TSHR mRNA expression in human SK-N-SH cells at EC10 by qPCR method relative to beta-actin; type: functional
SK-N-SH [36] = experiment: Effect on AKT1 mRNA expression in human SK-N-SH cells at EC10 by qPCR method relative to beta-actin; type: functional
SK-N-SH [37] = experiment: Effect on PIK3CG mRNA expression in human SK-N-SH cells at EC10 by qPCR method relative to beta-actin; type: functional
SK-N-SH [38] = experiment: Effect on GRM1 mRNA expression in human SK-N-SH cells at EC10 by qPCR method relative to beta-actin; type: functional
SK-N-SH [39] = experiment: Effect on AGTR2 mRNA expression in human SK-N-SH cells at EC10 by qPCR method relative to beta-actin; type: functional
SK-N-SH [40] = experiment: Effect on DRD2 mRNA expression in human SK-N-SH cells at EC10 by qPCR method relative to beta-actin; type: functional
SH-SY5Y [41] = experiment: Effect on MAG mRNA expression in human SH-SY5Y cells at EC10 by qPCR method relative to beta-actin; type: functional
SH-SY5Y [42] = experiment: Effect on CCL3 mRNA expression in human SH-SY5Y cells at EC10 by qPCR method relative to beta-actin; type: functional
U-118-MG [43] = experiment: Effect on MAG mRNA expression in human U118MG cells at EC10 by qPCR method relative to beta-actin; type: functional
SK-N-SH [44] = experiment: Effect on CCL3 mRNA expression in human SK-N-SH cells at EC10 by qPCR method relative to beta-actin; type: functional

CCCCCCCCn1nnnc1CCC(N)(CO)CO.Cl
EC10 [1]: 450 nM
EC10 [2]: 540 nM
Activity [3]: Active
fold change (FC) (SH-SY5Y [4]): -6.5966
fold change (FC) (SH-SY5Y [5]): -4.4551
fold change (FC) (SH-SY5Y [6]): -3.9071
fold change (FC) (SH-SY5Y [7]): 3.6859
fold change (FC) (SH-SY5Y [8]): -6.2326
fold change (FC) (SH-SY5Y [9]): -4.5291
fold change (FC) (SH-SY5Y [10]): -4.939
fold change (FC) (SH-SY5Y [11]): -4.7071
fold change (FC) (SH-SY5Y [12]): 2.8007
fold change (FC) (SH-SY5Y [13]): -2.5755
fold change (FC) (SH-SY5Y [14]): -3.5167
fold change (FC) (SH-SY5Y [15]): -4.806
fold change (FC) (U-118-MG [16]): -3.0275
fold change (FC) (U-118-MG [17]): -2.9665
fold change (FC) (U-118-MG [18]): -4.2107
fold change (FC) (U-118-MG [19]): -5.127
fold change (FC) (U-118-MG [20]): -5.8779
fold change (FC) (U-118-MG [21]): -3.3614
fold change (FC) (U-118-MG [22]): 3.1513
fold change (FC) (U-118-MG [23]): -2.6892
fold change (FC) (U-118-MG [24]): -2.9826
fold change (FC) (U-118-MG [25]): -2.5398
fold change (FC) (SK-N-SH [26]): -3.004
fold change (FC) (SK-N-SH [27]): -7.9138
fold change (FC) (SK-N-SH [28]): -9.5591
fold change (FC) (SK-N-SH [29]): 7.0402
fold change (FC) (SK-N-SH [30]): -7.2696
fold change (FC) (SK-N-SH [31]): -5.0696
fold change (FC) (SK-N-SH [32]): -3.842
fold change (FC) (SK-N-SH [33]): -5.1582
fold change (FC) (SK-N-SH [34]): 3.2561
fold change (FC) (SK-N-SH [35]): 5.2621
fold change (FC) (SK-N-SH [36]): -5.3124
fold change (FC) (SK-N-SH [37]): -7.7108
fold change (FC) (SK-N-SH [38]): -5.0346
fold change (FC) (SK-N-SH [39]): 9.0827
fold change (FC) (SK-N-SH [40]): -3.8822

CCCCCCCCc1ccc(CCC(N)(CO)CO)cc1 [FINGOLIMOD]
EC10 [1]: 540 nM
EC10 [2]: 610 nM
Activity [3]: Active
fold change (FC) (SH-SY5Y [41]): 4.3772
fold change (FC) (SH-SY5Y [42]): -4.8232
fold change (FC) (SH-SY5Y [4]): -4.7158
fold change (FC) (SH-SY5Y [5]): -6.498
fold change (FC) (SH-SY5Y [7]): 6.8804
fold change (FC) (SH-SY5Y [8]): -6.442
fold change (FC) (SH-SY5Y [9]): -11.1967
fold change (FC) (SH-SY5Y [10]): -5.0806
fold change (FC) (SH-SY5Y [11]): -3.9518
fold change (FC) (SH-SY5Y [12]): 5.0193
fold change (FC) (SH-SY5Y [14]): -5.6081
fold change (FC) (SH-SY5Y [15]): -20.6061
fold change (FC) (U-118-MG [43]): 4.0174
fold change (FC) (U-118-MG [16]): -4.3432
fold change (FC) (U-118-MG [19]): -6.8152
fold change (FC) (U-118-MG [20]): -5.339
fold change (FC) (U-118-MG [21]): -4.301
fold change (FC) (U-118-MG [22]): -3.664
fold change (FC) (U-118-MG [23]): -2.5763
fold change (FC) (U-118-MG [24]): -3.53
fold change (FC) (U-118-MG [25]): -2.6579
fold change (FC) (SK-N-SH [44]): -4.0682
fold change (FC) (SK-N-SH [26]): -7.7644
fold change (FC) (SK-N-SH [27]): -7.7644
fold change (FC) (SK-N-SH [28]): -4.0965
fold change (FC) (SK-N-SH [29]): 7.6112
fold change (FC) (SK-N-SH [30]): -2.7499
fold change (FC) (SK-N-SH [31]): -8.0243
fold change (FC) (SK-N-SH [32]): -3.7305
fold change (FC) (SK-N-SH [33]): -5.9976
fold change (FC) (SK-N-SH [34]): 4.9782
fold change (FC) (SK-N-SH [35]): -4.4134
fold change (FC) (SK-N-SH [36]): -12.2684
fold change (FC) (SK-N-SH [37]): -5.7333
fold change (FC) (SK-N-SH [38]): -4.8631
fold change (FC) (SK-N-SH [39]): 3.8122
fold change (FC) (SK-N-SH [40]): -4.5217

CCCCCCCCn1nnnc1-c1ccc(C(O)CC(N)(CO)CO)cc1.Cl (centres undefined)
EC10 [1]: 300 nM
EC10 [2]: 360 nM
Activity [3]: Active
fold change (FC) (SH-SY5Y [41]): 2.631
fold change (FC) (SH-SY5Y [42]): -2.4869
fold change (FC) (SH-SY5Y [5]): -3.0565
fold change (FC) (SH-SY5Y [6]): -4.4248
fold change (FC) (SH-SY5Y [13]): -3.7208
fold change (FC) (U-118-MG [43]): 3.7859
fold change (FC) (U-118-MG [17]): -4.2262
fold change (FC) (U-118-MG [18]): -4.5247
fold change (FC) (U-118-MG [19]): -5.4736
fold change (FC) (SK-N-SH [44]): -5.716
fold change (FC) (SK-N-SH [40]): -4.2208
